Among the data in PubChem BioAssay AID1259407 (Chemical Carcinogenesis Research Information System (CCRIS), 2018) are mutagenic call values, retold here.

SMILES strings stand for the structures. Active and inactive are the calls of the source. How the calls were made is not given here.

This series concerns CCRIS mutagenicity, Ames/micronucleus/aberration tests. The experiment in a line: CCRIS mutagenicity studies.
Where [1] appears, read: Test System: AMES SALMONELLA TYPHIMURIUM, Strain/Indicator: TA98, Metabolic Activation: NONE, Method: PREINCUBATION
The mark [2] stands for this setting: Test System: AMES SALMONELLA TYPHIMURIUM, Strain/Indicator: TA100, Metabolic Activation: NONE, Method: PREINCUBATION
[3] abbreviates: Test System: AMES SALMONELLA TYPHIMURIUM, Strain/Indicator: TA1535, Metabolic Activation: NONE, Method: STANDARD PLATE.

`COC(=O)c1ccccc1C(=O)OC`: the mutagenic call by setting is: (End Point: IN VITRO CHROMOSOMAL ABERRATIONS, Test System: CHO-LB CELLS, Metabolic Activation: NONE) “inactive; negative”; (End Point: IN VITRO CHROMOSOMAL ABERRATIONS, Test System: CHO-LB CELLS, Metabolic Activation: RAT, LIVER, S-9, AROCLOR 1254) “inactive; negative”; (Test System: AMES SALMONELLA TYPHIMURIUM, Strain/Indicator: TA98, Metabolic Activation: HAMSTER, LIVER, S-9, AROCLOR 1254 (10%), Method: PREINCUBATION) “inactive; negative”; under setting [1], “inactive; negative”; (Test System: AMES SALMONELLA TYPHIMURIUM, Strain/Indicator: TA98, Metabolic Activation: RAT, LIVER, S-9, AROCLOR 1254 (10%), Method: PREINCUBATION) “inactive; negative”; (Test System: AMES SALMONELLA TYPHIMURIUM, Strain/Indicator: TA100, Metabolic Activation: HAMSTER, LIVER, S-9, AROCLOR 1254 (10%), Method: PREINCUBATION) “inactive; negative”. Further, the mutagenic call was “inactive; negative” under setting [2]; “inactive; negative” (Test System: AMES SALMONELLA TYPHIMURIUM, Strain/Indicator: TA100, Metabolic Activation: RAT, LIVER, S-9, AROCLOR 1254 (10%), Method: PREINCUBATION); “inactive; negative” (Test System: AMES SALMONELLA TYPHIMURIUM, Strain/Indicator: TA100, Metabolic Activation: RAT, LIVER, S-9, AROCLOR 1254, Method: STANDARD PLATE); “inactive; negative” (Test System: AMES SALMONELLA TYPHIMURIUM, Strain/Indicator: TA100, Metabolic Activation: S-9, Method: STANDARD PLATE); “inactive; negative” (Test System: AMES SALMONELLA TYPHIMURIUM, Strain/Indicator: TA1535, Metabolic Activation: HAMSTER, LIVER, S-9, AROCLOR 1254 (10%), Method: PREINCUBATION); “inactive; negative” (Test System: AMES SALMONELLA TYPHIMURIUM, Strain/Indicator: TA1535, Metabolic Activation: NONE, Method: PREINCUBATION). Moreover, the mutagenic call runs as follows: under setting [3], “inactive; negative”; (Test System: AMES SALMONELLA TYPHIMURIUM, Strain/Indicator: TA1535, Metabolic Activation: RAT, LIVER, S-9, AROCLOR 1254 (10%), Method: PREINCUBATION) “inactive; negative”; (Test System: AMES SALMONELLA TYPHIMURIUM, Strain/Indicator: TA1535, Metabolic Activation: S-9, Method: STANDARD PLATE) “inactive; negative”; (Test System: AMES SALMONELLA TYPHIMURIUM, Strain/Indicator: TA1537, Metabolic Activation: HAMSTER, LIVER, S-9, AROCLOR 1254 (10%), Method: PREINCUBATION) “inactive; negative”; (Test System: AMES SALMONELLA TYPHIMURIUM, Strain/Indicator: TA1537, Metabolic Activation: NONE, Method: PREINCUBATION) “inactive; negative”; (Test System: AMES SALMONELLA TYPHIMURIUM, Strain/Indicator: TA1537, Metabolic Activation: RAT, LIVER, S-9, AROCLOR 1254 (10%), Method: PREINCUBATION) “inactive; negative”. Also, the mutagenic call (Test System: MOUSE LYMPHOMA, Strain/Indicator: L5178Y (TK+/TK-), Metabolic Activation: NONE, Method: SUSPENSION/PLATE) is “inactive; negative” and the mutagenic call (Test System: MOUSE LYMPHOMA, Strain/Indicator: L5178Y (TK+/TK-), Metabolic Activation: RAT LIVER S-9, Method: SUSPENSION/PLATE) is “active; positive”.
For the compound `CCC[C@@H]1C[C@@H](C(=O)N[C@@H]([C@H]2O[C@H](SC)[C@H](O)[C@@H](O)[C@H]2O)[C@@H](C)O)N(C)C1`, the mutagenic call is, setting by setting: (End Point: AMES SALMONELLA TYPHIMURIUM, Test System: TA98, Metabolic Activation: NONE, Method: STANDARD PLATE) “active; positive”; (End Point: AMES SALMONELLA TYPHIMURIUM, Test System: TA100, Metabolic Activation: NONE, Method: STANDARD PLATE) “active; positive”.
With `Fc1cccc2cccnc12`, the mutagenic call runs as follows: (End Point: In vitro chromosomal aberrations, Test System: Chinese hamster lung fibroblast cells (CHL/IU), Metabolic Activation: Rat, Liver, S-9) “active; positive, described as marginally clastogenic at nontoxic doses. (information de”; (End Point: In vitro micronucleus, Test System: Chinese hamster lung fibroblast cells (CHL/IU), Metabolic Activation: Rat, Liver, S-9) “inactive; negative, cytotoxic at 0.2 mg/ml. (information derived from a figure)”; (Test System: AMES SALMONELLA TYPHIMURIUM, Strain/Indicator: TA100, Metabolic Activation: RAT LIVER S-9, PHENOBARBITAL AND 5,6-BENZOFLAVONE, Method: PREINCUBATION) “active; positive”; (Test System: AMES SALMONELLA TYPHIMURIUM, Strain/Indicator: TA100, Metabolic Activation: RAT, LIVER, S-9, AROCLOR 1254, Method: PREINCUBATION) “active; positive”; (Test System: AMES SALMONELLA TYPHIMURIUM, Strain/Indicator: TA100, Metabolic Activation: RAT, LIVER, S-9, PHENOBARBITAL AND 5,6-BENZOFLAVONE, Method: PREINCUBATION) “active; positive”; (Test System: AMES SALMONELLA TYPHIMURIUM, Strain/Indicator: TA100, Metabolic Activation: RAT, LIVER, S-9, PHENOBARBITAL AND 5,6-NAPHTHOFLAVONE, Method: PREINCUBATION) “active; positive”. The mutagenic call is, setting by setting: (Test System: AMES SALMONELLA TYPHIMURIUM, Strain/Indicator: TA100, Metabolic Activation: S-9, Method: PREINCUBATION) “active; positive”; (Test System: UDS RODENT HEPATOCYTES, Strain/Indicator: THY INCORP (NON-S-PHASE), Metabolic Activation: NONE, Method: AUTORADIOGRAPHY) “active; positive”.
In the case of `COc1ccc2c(c1)-c1nccc3cc(OC)c(O)c(c13)C2=O`, the mutagenic call (Test System: AMES SALMONELLA TYPHIMURIUM, Strain/Indicator: TA98, Metabolic Activation: RAT, LIVER, S-9, PHENOBARBITAL AND BETA-NAPHTHOFLAVONE, Method: PREINCUBATION) is “active; positive”.
As to `CC(C)(C)Br`, the mutagenic call was “active; positive” (Test System: AMES SALMONELLA TYPHIMURIUM, Strain/Indicator: TA100, Metabolic Activation: NONE, Method: DESICCATOR) and “active; positive” (Test System: AMES SALMONELLA TYPHIMURIUM, Strain/Indicator: TA100, Metabolic Activation: RAT, LIVER, S-9, AROCLOR 1254, Method: DESICCATOR).
For `[Ag][I]`, the mutagenic call is “inactive; negative” (Test System: AMES SALMONELLA TYPHIMURIUM, Strain/Indicator: TA97, Metabolic Activation: NONE, Method: STANDARD PLATE); “active; positive” (Test System: AMES SALMONELLA TYPHIMURIUM, Strain/Indicator: TA97, Metabolic Activation: RAT LIVER S-9, AROCLOR 1254, Method: STANDARD PLATE); “inactive; negative” (Test System: AMES SALMONELLA TYPHIMURIUM, Strain/Indicator: TA98, Metabolic Activation: NONE, Method: STANDARD PLATE); “inactive; negative” (Test System: AMES SALMONELLA TYPHIMURIUM, Strain/Indicator: TA98, Metabolic Activation: RAT LIVER S-9, AROCLOR 1254, Method: STANDARD PLATE); “active; positive” (Test System: AMES SALMONELLA TYPHIMURIUM, Strain/Indicator: TA102, Metabolic Activation: NONE, Method: STANDARD PLATE); “inactive; negative” (Test System: AMES SALMONELLA TYPHIMURIUM, Strain/Indicator: TA102, Metabolic Activation: RAT LIVER S-9, AROCLOR 1254, Method: STANDARD PLATE). For the same compound, the mutagenic call is, setting by setting: under setting [3], “inactive; negative”; (Test System: AMES SALMONELLA TYPHIMURIUM, Strain/Indicator: TA1535, Metabolic Activation: RAT LIVER S-9, AROCLOR 1254, Method: STANDARD PLATE) “inactive; negative”.
`C=CCNC(N)=O`: the mutagenic call runs as follows: (Test System: AMES SALMONELLA TYPHIMURIUM, Strain/Indicator: TA98, Metabolic Activation: HAMSTER, LIVER, S-9, AROCLOR 1254 (30%), Method: PREINCUBATION) “inactive; negative”; under setting [1], “inactive; negative”; (Test System: AMES SALMONELLA TYPHIMURIUM, Strain/Indicator: TA100, Metabolic Activation: HAMSTER, LIVER, S-9, AROCLOR 1254 (5, 10 OR 30%), Method: PREINCUBATION) “inactive; negative”; under setting [2], “inactive; negative”; (Test System: AMES SALMONELLA TYPHIMURIUM, Strain/Indicator: TA100, Metabolic Activation: RAT, LIVER, S-9, AROCLOR 1254 (30%), Method: PREINCUBATION) “inactive; negative”; (Test System: AMES SALMONELLA TYPHIMURIUM, Strain/Indicator: TA1535, Metabolic Activation: HAMSTER, LIVER, S-9, AROCLOR 1254 (5 OR 10%), Method: PREINCUBATION) “inactive; negative”. Moreover, the mutagenic call (Test System: AMES SALMONELLA TYPHIMURIUM, Strain/Indicator: TA1535, Metabolic Activation: HAMSTER, LIVER, S-9, AROCLOR 1254 (30%), Method: PREINCUBATION) is “active; positive”.
As for `O=NN(c1ccc([N+](=O)[O-])cc1)C1OC[C@H](O)[C@H](O)[C@H]1O` (some centres undefined), the mutagenic call (Test System: AMES SALMONELLA TYPHIMURIUM, Strain/Indicator: TA100, Metabolic Activation: NONE, Method: STANDARD PLATE) was “active; positive”.
